{"source": "patent US11834663B2", "about": "“Fibrotic treatment” (Monash University, priority 2015, dated 2023)", "key": {"[1]": {"test_system": "thoracic aortic sections from Ang II-infused WT mice", "test": "Angiotensin II infusion prevention model: aortic fibrosis and inflammation markers (picrosirius red, immunofluorescence)", "format": "in vivo, mouse", "procedure": "(§1) There are 8 different sets of in vivo experiments in this study: • A) Phenotypic characterisation of the heart and blood vessels in global IRAP knockout mice and their WT controls treated for 4 weeks with Angiotensin (Ang) II (800 ng/kg/min; s.c.) where mouse hearts and blood vessels were compared to tissue obtained from young WT and IRAP^−/− mice treated with saline. • B) Prevention of Ang II-induced changes in the cardiovascular system following IRAP inhibitor treatment. In the prevention model, WT mice were treated with Ang II (800 ng/kg/min; s.c.)±the IRAP inhibitor (HFI-419; 500 ng/kg/min for 28 days) or HFI-vehicle (1 DMSO:3 HBC). • C) Phenotypic characterisation of the aged heart, kidney and blood vessels in the global IRAP knockout mice where aged WT and IRAP^−/− mouse hearts, kidneys and blood vessels were compared to tissue obtained from young WT and IRAP^−/− mice. • D) Reversal of the age-induced changes in the cardiovascular system following IRAP inhibitor treatment. In the reversal model, aged WT mice were treated with either saline, IRAP inhibitor (HFI-419 at 500 ng/kg/min; compound 1 at 500 ng/kg/min; compound 2 at 50 ng/kg/min) or HFI-vehicle (1 DMSO: 3 HBC) for 4 weeks. • E) Prevention of ischemic-reperfusion injury in isolated hearts taken from aged global IRAP knockout mice and aged IRAP inhibitor (HFI-419 at 500 ng/kg/min; s.c.) treated WT mice compared to age-matched vehicle-treated (1 DMSO:3 HBC; s.c.) WT controls. • F) Phenotypic characterization of cardiac function using echocardiography in the aged global IRAP knockout mice compared to aged and young WT mice. • G) Phenotypic characterization of liver steatosis in IRAP knockout mice in a high fat diet (HFD) model. • H) Reversal of the salt-induced fibrosis in the liver following IRAP inhibitor treatment.\n(§2) To measure collagen deposition, frozen sections of heart, kidney or aorta (all 5 μm thickness) were air dried for 10 minutes and were brought through 3 times xylene (2 minutes each), and 3 times absolute alcohol washes before being rinsed in tap H2O for 30 seconds. Staining with an optimal concentration of picrosirius red (in this instance 0.05% picrosirius red diluted in saturated picric acid) was performed and left for an hour. Sections were then rinsed in water and differentiated in 0.01 M HCl for 2 minutes, followed by dehydration via 3 times absolute alcohol washes. Then, slides were brought through 3 times xylene washes before being cover slipped according to standard histological techniques using DPX as the mounting medium. Images were taken under ×20 magnification, using bright field (Olympus, BX51) and circularized polarized light microscopy (DM IRB, Leica) while percentage of positive interstitial collagen staining per total field of view was quantified using ImageJ 1.46 software (Java, NIH), and averaged out from a total of eight views as the final percentage collagen content in a particular animal.\nImmunostaining was performed on either 5 μm thick transverse frozen heart sections or 5 μm thick frozen thoracic aortic. These sections were air dried and fixed in ice-cold acetone for approximately 15 minutes before washing with 0.01M PBS buffer (3×10 minutes). Sections were then incubated with 10% goat serum in 0.01M PBS for 30 minutes to reduce non-specific binding. If the primary antibody is raised in goat, this pre-blocked medium is substituted with 5% BSA in PBS and Triton-X. Next, blocking buffers were removed and the primary antibody to respective markers were applied overnight at room temperature based on the following dilution and origin of the antibodies: IRAP (1:500, in-house), α-SMA (1:500, Abcam), Vimentin (1:500, Santa Cruz), P-IκBα (1:200, Cell Signalling), F4/80 macrophage (1:100, Serotec), MCP-1 (1:100, Santa Cruz), VWF (1:500, abcam). […]"}, "[2]": {"test_system": "transverse heart sections from Ang II-infused WT mice", "test": "Angiotensin II infusion prevention model: cardiac hypertrophy, fibrosis, ROS and inflammatory markers", "format": "in vivo, mouse", "conditions": "Ang II + HFI-419, 4 weeks", "procedure": "as §1, §2\nVentricular weight (VW) was compared to the body weight (BW) as a ratio of VW:BW (mg/g), as well as comparison of VW to tibial length (TL) in as a ratio of VW:TL (mg/mm) respectively. The hearts that were embedded in OCT and frozen were transversely sectioned in a cryostat at 5 μm thickness, and stained with Hematoxylin and Eosin (Amber Scientific) for morphological examination of cell structure. The average of 100 cardiomyocytes per heart section was performed under 60× magnification and analyzed using Image J.\nImmunostaining was performed on either 5 μm thick transverse frozen heart sections or 5 μm thick frozen thoracic aortic. These sections were air dried and fixed in ice-cold acetone for approximately 15 minutes before washing with 0.01M PBS buffer (3×10 minutes). Sections were then incubated with 10% goat serum in 0.01M PBS for 30 minutes to reduce non-specific binding. […]"}, "[3]": {"conditions": "Ang II + HFI-419, 4 weeks, FIG. 4"}, "[4]": {"conditions": "Ang II + HFI-419, 4 weeks, immunofluorescence, FIG. 3"}}}
{"smiles": "CCOC(=O)C1=C(NC(C)=O)Oc2cc(O)ccc2C1c1cccnc1", "note": "(stereo not shown) [HFI-419]", "values": [{"measurement": "Ang II-induced vascular fibrosis (aortic collagen, picrosirius red)", "setting": "[1]; Ang II 800 ng/kg/min + HFI-419 500 ng/kg/min, 4 weeks, FIG. 3", "value": "prevented"}, {"measurement": "ICAM-1 expression in aorta", "setting": "[1]; [3]", "value": "reductions"}, {"measurement": "MCP-1 expression in aorta", "setting": "[1]; [3]", "value": "reductions"}, {"measurement": "P-IκBα (marker for NFκB activation) expression in aorta", "setting": "[1]; [3]", "value": "reductions"}, {"measurement": "VCAM-1 expression in aorta", "setting": "[1]; [3]", "value": "reductions"}, {"measurement": "TGF-β1 expression in aorta", "setting": "[1]; [4]", "value": "decreased"}, {"measurement": "α-SMA expression in aorta", "setting": "[1]; [4]", "value": "decreased"}, {"measurement": "Ang II-mediated increase in cardiac hypertrophy (cardiomyocyte cross-sectional area, H&E)", "setting": "[2]; FIG. 5a", "value": "prevented"}, {"measurement": "interstitial collagen expression in heart (picrosirius red, brightfield)", "setting": "[2]; FIG. 5b", "value": "significantly decreased"}, {"measurement": "protein expression of TGF-β1 in heart (western blot)", "setting": "[2]; FIG. 6", "value": "decreased"}, {"measurement": "vimentin staining in heart (marker for fibroblast expression)", "setting": "[2]; FIG. 6", "value": "no change"}, {"measurement": "α-SMA staining in heart (marker for myofibroblast expression)", "setting": "[2]; FIG. 6", "value": "decreased"}, {"measurement": "Ang II-induced increase in cardiac superoxide generation (DHE)", "setting": "[2]; FIG. 7", "value": "prevented"}, {"measurement": "ICAM-1 expression and protein content in heart", "setting": "[2]; FIG. 7", "value": "decreased"}, {"measurement": "MCP-1 expression in heart", "setting": "[2]; FIG. 7", "value": "decreasing"}, {"measurement": "P-IκBα expression in heart", "setting": "[2]; FIG. 7", "value": "decreased"}, {"measurement": "expression of NOX-2 in heart", "setting": "[2]; FIG. 7", "value": "no effect"}, {"measurement": "macrophage (F4/80) expression in heart", "setting": "[2]; FIG. 7", "value": "decreasing"}, {"measurement": "perivascular expression of TGF-β1 in heart", "setting": "[2]; immunofluorescence, FIG. 6", "value": "decreased"}]}
